Measured values from patent EP0665223A1, “Antitumor agent, novel 3(2H)-pyridazinone derivatives and their preparation” (TAKEDA CHEMICAL INDUSTRIES, LTD., priority 1994, dated 1995).

Legend:
[1] = tested on: pancreatic cancer cell AsPC-1; experiment: Suppressing proliferation of pancreatic cancer cell AsPC-1 in vitro (MTT, number of living cells); format: cell-based; settings: Homo sapiens, ASPC1, 72 h, AsPC-1, RPMI 1640 medium, incubated 3 days with test compound
Description: (§1) A cell suspension of pancreatic cancer cell AsPC-1 (20000/ml) in RPMI 1640 medium (Flow Laboratories) supplemented with 10% of inactivated fetal calf serum, 1 mM of sodium pyruvate and 25 mM of HEPES [2-{4-(2-hydroxyethyl)-1-piperazinyl}ethanesulfonic acid] was added to 96-well micro-culture plates (50ul/well). The culture plates were incubated at 37°C in a 5% CO₂ incubator. On the following day, the solution of each test compound dissolved in dimethylformamide and diluted (3-fold steps) was added (50 ul/well), which was incubated for further 3 days. The culture broth containing the test compounds was eliminated, and the cells were washed, to which was added a solution of MTT pigment, and the number of living cells was calculated [Tada et al. J. Immunol. Methods, 93 p.157 (1986)]. The number of cells in the control group containing no test compound was assumed to be 100%, and the respective ratios of cell numbers in groups containing the respective test compounds were calculated to thereby determine the concentrations (IC₅₀ value) of the respective test compounds necessary to suppress the number of living cells to 50% of that of the control group.

[2] = tested on: pancreatic cancer cell strain PC-3; experiment: Suppressing proliferation of PC-3 cells in vitro (MTT, number of living cells); format: cell-based; settings: 96 h, PC-3, F-12K medium, incubated 4 days with test compound
Description: as §1
For the test of pancreatic cancer cell strain PC-3, the same method in the case of AcPC-1 was employed excepting the use of F-12K medium containing 10% inactivated fetal calf serum (Flow Laboratories) and change of the incubation period after adding the test compounds to 4 days, to thereby determine the IC₅₀ value (nm).

Row | IC50 [1] [nM] | IC50 [2] [nM] | Structure (SMILES)
1 | 16 | < 1.52 | CC(C)(C)n1ncc(SCc2ccc(-c3ncccn3)cc2)c(Cl)c1=O [Compound 96, 2-t-butyl-4-chloro-5-[4-(2-pyrimidyl)]benzylthio-3(2H)-pyridazine]
2 | 54 | 6 | COc1cc(OC)nc(-c2ccc(CSc3cnn(C(C)(C)C)c(=O)c3Cl)cc2)n1 [Compound 98, 2-t-butyl-4-chloro-5-[4-[2-(4,6-dimethoxy)pyrimidyl]]benzylthio-3(2H)-pyridazinone]
3 | 100 | 2 | CC(C)(C)n1ncc(SCc2ccc(-c3ncns3)cc2)c(Cl)c1=O [Compound 117, 2-t-butyl-4-chloro-5-[4-(1,2,4-thiadiazol-5-yl)benzylthio]-3(2H)-pyridazinone]
4 | 85 | < 1.52 | Cc1c(OCc2ccc(-c3ccccn3)cc2)cnn(C(C)(C)C)c1=O [Compound 104, 2-t-butyl-4-methyl-5-[4-(2-pyridyl)]benzyloxy-3(2H)-pyridazinone]
5 | 120 | < 1.52 | CC(C)(C)n1ncc(SCc2ccc(-c3ccno3)cc2)c(Cl)c1=O [Compound 113, 2-t-butyl-4-chloro-5-[4-(1,2-oxazol-5-yl)benzylthio]-3(2H)-pyridazinone]
6 | 550 | 3 | CC(C)(C)n1ncc(SCc2ccc(-c3cc[nH]n3)cc2)c(Cl)c1=O [Compound 111, 2-t-butyl-4-chloro-5-[4-(1H-pyrazol-3-yl)benzylthio]-3(2H)-pyridazinone]
7 | 49 | < 1.52 | CC(C)(C)n1ncc(SCc2ccc(-c3csnn3)cc2)c(Cl)c1=O [Compound 115, 2-t-butyl-4-chloro-5-[4-(1,2,3-thiadiazol-4-yl)benzylthio]-3(2H)-pyridazinone]
8 | 230 | 52 | COc1cc(OC)nc(-c2ccc(COc3cnn(C(C)(C)C)c(=O)c3Cl)cc2)n1 [Compound 99, 2-t-butyl-4-chloro-5-[4-[2-(4,6-dimethoxy)pyrimidyl]]benzyloxy-3(2H)-pyridazinone]
9 | 33 | 2 | CC(C)(C)n1ncc(SCc2ccc(-c3csc(N)n3)cc2)c(Cl)c1=O [Compound 102]
10 | 370 | 14 | CC(C)(C)n1ncc(OCc2ccc(-c3csnn3)cc2)c(Cl)c1=O [Compound 116, 2-t-butyl-4-chloro-5-[4-(1,2,3-thiadiazol-4-yl)benzyloxy]-3(2H)-pyridazinone]
11 | 250 | 210 | CC(C)(C)n1ncc(OCc2ccc(-c3csc(N)n3)cc2)c(Cl)c1=O [Compound 103]
12 | 370 | < 1.52 | CC(C)(C)n1ncc(SCc2ccc(-c3cnco3)cc2)c(Cl)c1=O [Compound 119, 2-t-butyl-4-chloro-5-[4-(1,3-oxazol-5-yl)benzylthio]-3(2H)-pyridazinone]
13 | 280 | < 1.52 | CC(C)(C)n1ncc(OCc2ccc(-c3ncccn3)cc2)c(Cl)c1=O [Compound 97, 2-t-butyl-4-chloro-5-[4-(2-pyrimidyl)]benzyloxy-3(2H)-pyridazine]

Continued, compound first:

Row | Structure (SMILES) | IC50 [1] [nM] | IC50 [2] [nM]
14 | CC(C)(C)n1ncc(SCc2ccc(OCc3ccccc3)cc2)c(Cl)c1=O [Compound 74, 5-(4-benzyloxybenzylthio)-2-t-butyl-4-chloro-3(2H)-pyridazinone] | 29 | < 1.52
15 | Cc1c(SCc2ccc(C(C)(C)C)cc2)cnn(C(C)(C)C)c1=O [Compound 27, 2-t-butyl-5-(4-t-butyl)benzylthio-4-methyl-3(2H)pyridazinone] | 9 | < 1.52
16 | CC(C)(C)n1ncc(OCc2ccc3ccccc3c2)c(Cl)c1=O [Compound 20, 2-t-butyl-4-chloro-5-(2-naphthyl)methyloxy-3(2H)pyridazinone] | 440 | 5
17 | CC(C)(C)n1ncc(OCc2ccc(C(=O)c3ccc(Cl)cc3)cc2)c(Cl)c1=O [Compound 73, 2-t-butyl-4-chloro-5-[4-(4-chlorobenzoyl)benzyloxy]-3(2H)-pyridazinone] | 8 | < 1.52
18 | CC(C)(C)n1ncc(SCc2ccc3ccccc3n2)c(Cl)c1=O [Compound 12, 2-t-butyl-4-chloro-5-(2-quinolyl)methylthio-3(2H)pyridazinone] | 74 | 42
19 | CC(C)(C)n1ncc(SCc2ccc(-c3ccccc3C#N)cc2)c(Cl)c1=O [Compound 13, 2-t-butyl-4-chloro-5-{4-(2-cyanophenyl)} benzylthio-3(2H)pyridazinone] | < 1.52 | < 1.52
20 | CC(C)(C)n1ncc(OCc2ccc(-c3ccnc(N)c3)cc2)c(Cl)c1=O [Compound 93, 5-[4-[4-(2-amino)pyridyl]benzyloxy]-2-t-butyl-4-chloro-3(2H)-pyridazinone] | 770 | 110
21 | CC(C)(C)n1ncc(SCC=Cc2ccccc2)c(Cl)c1=O [Compound 6, 2-t-butyl-4-chloro-5-{(3-phenyl)-2-propenylthio}-3(2H)pyridazinone] | 290 | 53
22 | CC(C)(C)n1ncc(OCc2ccc(-c3ccccn3)cc2)c(Cl)c1=O [Compound 42, 2-t-butyl-4-chloro-5-{4-(2-pyridyl)benzyloxy}-3(2H)-pyridazinone] | 5 | 2
23 | CC(C)(C)n1ncc(SCc2ccc(-c3ccccn3)cc2)c(Cl)c1=O [Compound 39, 2-t-butyl-4-chloro-5-{4-(2-pyridyl)benzylthio}-3(2H)-pyridazinone] | < 1.52 | 4
24 | Cc1c(OCc2ccc(C(C)(C)C)cc2)cnn(C(C)(C)C)c1=O [Compound 31, 2-t-butyl-5-(4-t-butyl)benzyloxy-4-methyl-3(2H)pyridazinone] | 84 | 25
25 | CC(C)(C)n1ncc(SCc2ccc(C(F)(F)F)cc2)c(Cl)c1=O [Compound 17, 2-t-butyl-4-chloro-5-(4-trifluoromethyl) benzylthio-3(2H)pyridazinone] | 59 | 56
26 | CC(C)(C)n1ncc(SCc2ccc(-c3ccnc(N)c3)cc2)c(Cl)c1=O [Compound 92, 5-[4-[4-(2-amino)pyridyl]benzylthio]-2-t-butyl-4-chloro-3(2H)-pyridazinone] | 28 | < 1.52
27 | CC(C)(C)n1ncc(SC(CO)c2ccc(-c3ccccc3)cc2)c(Cl)c1=O (stereo not shown) [Compound 85, 2-t-butyl-4-chloro-5-[2-hydroxy-1-(p-biphenyl)]ethylthio-3(2H)-pyridazinone] | 12 | < 1.52
28 | CC(C)(C)n1ncc(OC(CO)c2ccc(-c3ccccc3)cc2)c(Cl)c1=O (stereo not shown) [Compound 83, 2-t-butyl-4-chloro-5-[2-hydroxy-1-(43-biphenyl)]ethoxy-3(2H)-pyridazinone] | 73 | 2
29 | CC(C)(C)OC(=O)Nc1cc(-c2ccc(COc3cnn(C(C)(C)C)c(=O)c3Cl)cc2)ccn1 [Compound 91] | 560 | 92
30 | CC(C)(C)n1ncc(SCc2ccc(-c3ccccc3)cc2)c(Cl)c1=O [Compound 3, 2-t-butyl-4-chloro-5-(4-phenyl)benzylthio-3(2H)pyridazinone] | < 1.52 | 2
31 | CC(C)(C)n1ncc(SCc2ccc(C(=O)c3ccc(Cl)cc3)cc2)c(Cl)c1=O [Compound 72, 2-t-butyl-4-chloro-5-[4-(4-chlorobenzoyl)benzylthio]-3(2H)-pyridazinone] | < 1.52 | < 1.52
32 | CC(C)(C)n1ncc(OCc2ccc(-c3ccccc3)cc2)c(Cl)c1=O [Compound 18, 2-t-butyl-4-chloro-5-(4-phenyl)benzyloxy-3(2H)pyridazinone] | < 1.52 | < 1.52
33 | CC(C)(C)n1ncc(OCC(O)c2ccc(-c3ccccc3)cc2)c(Cl)c1=O (stereo not shown) [Compound 82, 2-t-butyl-4-chloro-5-[2-hydroxy-2-(4-biphenyl)]ethoxy-3(2H)-pyridazinone] | 480 | 27
34 | CC(C)(C)n1ncc(SC(CO)c2ccccc2)c(Cl)c1=O (stereo not shown) [Compound 48, 2-t-butyl-4-chloro-5-(2-hydroxy-1-phenyl) ethylthio-3(2H)-pyridazinone] | 67 | 45
35 | CC(C)(C)n1ncc(OCc2ccc(OCc3ccc(F)cc3)nc2)c(Cl)c1=O [Compound 49, 2-t-butyl-4-chloro-5-[6-(4-fluorobenzyloxy)-3-pyridyl]methoxy-3(2H)-pyridazinone] | 120 | < 1.52
36 | CC(C)(C)OC(=O)Nc1cc(-c2ccc(CSc3cnn(C(C)(C)C)c(=O)c3Cl)cc2)ccn1 [Compound 90, 2-t-butyl-4-chloro-5-[4-[4-(2-t-butoxycarbonylamino)pyridyl]benzylthio]-3(2H)-pyridazinone] | 270 | 64
37 | CC(C)(C)n1ncc(SCc2ccc3ccccc3c2)c(Cl)c1=O [Compound 4, 2-t-butyl-4-chloro-5-(2-naphthyl)methylthio-3(2H)pyridazinone] | 15 | < 1.52
38 | CC(C)(C)n1ncc(SCc2ccc(OCc3ccc(F)cc3)nc2)c(Cl)c1=O [Compound 50, 2-t-butyl-4-chloro-5-[6-(4-fluorobenzyloxy)-3-pyridyl]methylthio-3(2H)-pyridazinone] | 11 | < 1.52
